Measured values published in US12383515B2, “Compositions and methods of use of γ-ketoaldehyde scavengers for treating, preventing or improving nonalcoholic fatty liver disease (NAFLD), NASH, ALD or conditions related to the liver” (MTI Biotech, Inc., priority 2016, dated 2025).
“Also recorded” adds a separate entry of the source.

Assays:
HepaRG cells = test: Ethanol exposure of HepaRG hepatocytes after 2-HOBA pre-treatment; format: cell-based, human
cyclooxygenase enzymes = settings: cited from earlier work
C57/BL6J mice = test: NIAAA ethanol model (10 days ethanol in LDLD + binge) of alcoholic liver injury; format: in vivo, mouse; settings: for Basophils / WBC / eosinophils, % of WBC / lymphocytes, % of WBC / monocytes, % of WBC: 0.5 g/L in LDLD; for AST: serum
Description: 2-HOBA and ethanol were concurrently administered to C57/BL6J mice to establish the efficacy of 2-HOBA in mitigating ethanol-mediated liver dysfunction (increased AST and ALT), reducing γ-KA formation, favorably altering immune responses and stimulating beneficial intracellular signaling pathways. […] 2-HOBA (0.5 g/L in Lieber-DeCarli liquid diet, LDLD) was administered to mice prior to ethanol treatment for 14 days to examine 2-HOBA efficacy in mitigating liver injury. Ethanol (5% v/v) was administered using the NIAAA model (10 days ethanol in LDLD+binge). […] White blood cell and lymphocyte cell counts were reduced while eosinophil and basophil counts were increased with ethanol relative to maltodextrin feeding (Table 1), consistent with other reports of alcoholic liver injury. Such responses were not observed in the presence of 2-HOBA.
An additional cohort of mice were administered a 14-day pretreatment of 2-HOBA (1.0 g/L) prior to administration of ethanol using the NIAAA model. Mice administered ethanol consumed less food and consequently weighed ˜2.5 g less than maltodextrin-fed controls at the end of study.

DIAMOND mice = test: DIAMOND mouse model of NAFLD/NASH; format: in vivo; settings: 1 g/L in drinking water, Western diet
Description: Twelve 8-wk old male DIAMOND mice were placed on ad libitum high fat diet (Harlan—ENVIGO TD.88317) and water containing glucose (18.9% w/v) and fructose (23.1% w/v); all mice remained on this diet throughout the study protocol. […] The vehicle control group received water without 2-HOBA (with glucose and fructose). Body weight and food intake were measured weekly. At ˜23 wks of age, all animals underwent a glucose tolerance test (GTT) and MRI imaging to assess hepatic fat. For the GTT, animals were fasted for 12 hours and then glucose (2 g/kg bw of a 100 mg/mL glucose in sterile water) was administered by oral gavage. Blood was sampled at 0, 15, 30, 45, 60, 90, and 120 minutes after glucose administration and area under the curve was calculated. Animals were sacrificed at 24 wks of age (12 weeks of 2-HOBA or vehicle treatment). Tissues and serum were collected for analysis.
Serum levels of glucose, alanine transaminase, and aspartate transaminase were measured. […] Significance was set at α=0.05.

HepG2 cells = settings: varying concentrations of H2O2; cited from earlier work
[1] = 1, 3, and 10 g/L for 7 days; cited from earlier work
mouse hepatocytes = test: Oxidant mediated cell death induced by t-butylhydroperoxide; format: cell-based; settings: FIG. 3
Source text: There is considerable interest in identifying appropriate therapeutic interventions aimed at inhibiting the inflammatory processes and interrupting the immunogenic pathways associated with ALD.
This is a remarkable finding given the fact the pathogenesis of oxidative injury is quite complex and multifaceted. […] Obviously, the efficacy of 2-HOBA depends on its accumulation in target tissues, and this was recently supported by pharmacokinetic studies in an in vivo mouse model. […] The levels in the liver were about 10 times higher than in plasma.

[2] = 1 g/L in drinking water, 6 weeks, vs vehicle
[3] = 2-HOBA + ETOH, 2-HOBA 1.0 g/L, 14-day pretreatment
[4] = 2-HOBA + MD, 2-HOBA 1.0 g/L, 14-day pretreatment

Question: For `NCc1ccccc1O` [2-HOBA, 2-Hydroxybenzylamine], which ALT (STAM mice; [2]) is on record?
Answer: trending towards reduction

Question: And the insulin (STAM mice; [2])?
Answer: trending towards reduction

Question: What about the lipids (STAM mice; [2]) of the same molecule?
Answer: trending towards reduction

Question: And the “liver to body weight ratios” value (STAM mice; [2])?
Answer: significantly reduced

Question: What about the liver weight (STAM mice; [2]) of the same molecule?
Answer: significantly reduced

Question: What about the serum isoprostanes (STAM mice; [2]) of the same molecule?
Answer: significantly reduced

Question: What about the NAFLD severity (STAM mice; FIG. 12) of the same molecule?
Answer: reduce

Question: And the NALP1 (STAM mice; liver)?
Answer: decrease

Question: What about the “expression of pyruvate dehydrogenase kinase 4 (pdk4)” value (STAM mice; liver) of the same molecule?
Answer: significantly decreased

Question: What about the “signaling through FOXO1” value (STAM mice; liver immunoblot) of the same molecule?
Answer: without significantly altering

Question: What about the AKT phosphorylation (STAM mice; liver immunoblot, FIG. 13) of the same molecule?
Answer: dramatically increased

Question: What about the GSK30 phosphorylation (STAM mice; liver immunoblot, FIG. 13) of the same molecule?
Answer: dramatically increased

Question: What about the “signaling through ERK” value (STAM mice; liver immunoblot, FIG. 13) of the same molecule?
Answer: without significantly altering

Question: What about the “signaling through mTOR” value (STAM mice; liver immunoblot, FIG. 13) of the same molecule?
Answer: without significantly altering

Question: And the “markers of hepatic insulin sensitivity” value (STAM mice; mouse, in vivo)?
Answer: restores

Question: What about the NLRP1-inflammasome activation (STAM mice; oral 2-HOBA administration) of the same molecule?
Answer: blocked

Question: And the “reactive oxygen species formation” value (HepaRG cells; 24 hr pre-treatment 0, 250, 500 and 1000 μM, ethanol 0-200 mM, 24 hr, FIG. 4A)?
Answer: did not affect

Question: And the “cell death by ethanol” value (HepaRG cells; 24 hr pre-treatment 0, 250, 500 and 1000 μM, ethanol 0-200 mM, 24 hr, FIG. 4B)?
Answer: almost completely prevented

Question: What about the “ALT levels in culture media” value (HepaRG cells; 24 hr pre-treatment 0, 250, 500 and 1000 μM, ethanol 0-200 mM, 24 hr, FIG. 5A) of the same molecule?
Answer: near normalization

Question: What about the “AST levels in culture media” value (HepaRG cells; 24 hr pre-treatment 0, 250, 500 and 1000 μM, ethanol 0-200 mM, 24 hr, FIG. 5B) of the same molecule?
Answer: near normalization

Question: What about the “intensity of ~18 kD anti-D11 cross-reactive (γ-KA adducted) band” value (HepaRG cells; pre-treatment 250 or 500 μM for 24 hr, ethanol, SDS-PAGE, D11 ScFv, FIG. 6) of the same molecule?
Answer: restored to levels observed in untreated controls

Question: And the “inhibition of cyclooxygenase enzymes” value (cyclooxygenase enzymes)?
Answer: does not inhibit

Question: What about the body weight (C57/BL6J mice; 0.5 g/L 2-HOBA in LDLD) of the same molecule?
Answer: not significantly impacted

Question: And the food intake (C57/BL6J mice; 0.5 g/L 2-HOBA in LDLD)?
Answer: not significantly impacted

Question: And the “increases in serum ALT” value (C57/BL6J mice; 2-HOBA 0.5 g/L)?
Answer: did not attenuate

Question: And the “increases in serum AST” value (C57/BL6J mice; 2-HOBA 0.5 g/L)?
Answer: did not attenuate

Question: And the “hepatic isofurans (IsoF)” value (C57/BL6J mice; 2-HOBA 1.0 g/L + ETOH, FIG. 8)?
Answer: significant reductions; also recorded: ameliorated

Question: What about the “hepatic isoprostanes (IsoP)” value (C57/BL6J mice; 2-HOBA 1.0 g/L + ETOH, FIG. 8) of the same molecule?
Answer: significant reductions; also recorded: ameliorated

Question: And the kidney isoprostane levels (C57/BL6J mice; 2-HOBA 1.0 g/L + ETOH, P<0.05 versus Con+ETOH)?
Answer: 1.3 ± 0.1 ng/g

Question: What about the Basophils (C57/BL6J mice; 2-HOBA + ETOH) of the same molecule?
Answer: 1.27 ± 0.26^# x10^3/μl

Question: What about the WBC (C57/BL6J mice; 2-HOBA + ETOH) of the same molecule?
Answer: 3.11 ± 0.66 x10^3/μl

Question: What about the eosinophils, % of WBC (C57/BL6J mice; 2-HOBA + ETOH) of the same molecule?
Answer: 2.71 ± 0.46%

Question: What about the lymphocytes, % of WBC (C57/BL6J mice; 2-HOBA + ETOH) of the same molecule?
Answer: 50.4 ± 4.59%

Question: And the monocytes, % of WBC (C57/BL6J mice; 2-HOBA + ETOH)?
Answer: 6.33 ± 1.11%

Question: What about the ALT (C57/BL6J mice; 2-HOBA + ETOH, 2-HOBA 0.5 g/L) of the same molecule?
Answer: 443.7 ± 66.2 U/L

Question: What about the AST (C57/BL6J mice; 2-HOBA + ETOH, 2-HOBA 0.5 g/L) of the same molecule?
Answer: 1725.0 ± 300.2 U/L

Question: And the “BUN (blood urea nitrogen)” value (C57/BL6J mice; 2-HOBA + ETOH, 2-HOBA 1.0 g/L)?
Answer: 22.6 ± 1.7 mg/dL

Question: And the “CRE (creatinine)” value (C57/BL6J mice; 2-HOBA + ETOH, 2-HOBA 1.0 g/L)?
Answer: 0.3 ± 0.04 mg/dL

Question: What about the ALT (C57/BL6J mice; [3]) of the same molecule?
Answer: 164.4±20.8 U/L

Question: And the AST (C57/BL6J mice; [3])?
Answer: 676.6±86.7 U/L

Question: And the WBC (C57/BL6J mice; 2-HOBA + MD (maltodextrin))?
Answer: 6.08 ± 1.05 x10^3/μl

Question: And the Basophils (C57/BL6J mice; 2-HOBA + MD)?
Answer: 0.60 ± 0.14 x10^3/μl

Question: And the eosinophils, % of WBC (C57/BL6J mice; 2-HOBA + MD)?
Answer: 1.79 ± 0.4%

Question: What about the lymphocytes, % of WBC (C57/BL6J mice; 2-HOBA + MD) of the same molecule?
Answer: 58.1 ± 5.45%

Question: What about the monocytes, % of WBC (C57/BL6J mice; 2-HOBA + MD) of the same molecule?
Answer: 6.66 ± 0.92%

Question: What about the ALT (C57/BL6J mice; 2-HOBA + MD, 2-HOBA 0.5 g/L) of the same molecule?
Answer: 54.3 ± 20.1 U/L

Question: What about the AST (C57/BL6J mice; 2-HOBA + MD, 2-HOBA 0.5 g/L) of the same molecule?
Answer: 566.5 ± 34.1 U/L

Question: What about the “BUN (blood urea nitrogen)” value (C57/BL6J mice; 2-HOBA + MD, 2-HOBA 1.0 g/L) of the same molecule?
Answer: 34.6 ± 2.9 mg/dL

Question: And the “CRE (creatinine)” value (C57/BL6J mice; 2-HOBA + MD, 2-HOBA 1.0 g/L)?
Answer: 0.3 ± 0.05 mg/dL

Question: And the ALT (C57/BL6J mice; [4])?
Answer: 127.5 ± 78.59 U/L

Question: And the AST (C57/BL6J mice; [4])?
Answer: 693.6 ± 173.1 U/L

Question: What about the hepatic triglyceride content (C57/BL6J mice; ETOH-challenged mice pre-treated with 2-HOBA 1.0 g/L) of the same molecule?
Answer: trended to be lower

Question: And the “ethanol responses: reduced white blood cell and lymphocyte counts, increased eosinophil and basophil counts” value (C57/BL6J mice; ethanol relative to maltodextrin feeding, 0.5 g/L 2-HOBA)?
Answer: not observed

Question: And the kidney isoprostane formation (C57/BL6J mice; pre-treatment 14 days at 1.0 g/L)?
Answer: decreased

Question: What about the “liver injury (elevated γ-KAs and liver function enzymes) upon ethanol exposure” value (C57/BL6J mice; pre-treatment with 2-HOBA 1.0 mg/ml (1.0 g/L), 14 days) of the same molecule?
Answer: significantly reduces; also recorded: reduced

Question: What about the liver weight (DIAMOND mice; FIGS. 15-16) of the same molecule?
Answer: trend for a reduction

Question: And the “liver enzyme ALT” value (DIAMOND mice; serum, FIG. 16H)?
Answer: significant reduction

Question: What about the “liver enzyme AST” value (DIAMOND mice; serum, FIG. 16I) of the same molecule?
Answer: significant reduction

Question: What about the “oxidant mediated cell death” value (HepG2 cells) of the same molecule?
Answer: protective effect

Question: And the “levels in the liver relative to plasma” value [1]?
Answer: about 10 times

Question: And the “liver levels of 2-HOBA” value [1]?
Answer: dose-dependent increases

Question: What about the “plasma levels of 2-HOBA” value [1] of the same molecule?
Answer: dose-dependent increases

Question: What about the “cell death induced by t-butylhydroperoxide (tBHP)” value (mouse hepatocytes) of the same molecule?
Answer: almost completely prevented
